Assay results from publication PMC3510080, “Identification of Compounds with Anti-Proliferative Activity against Trypanosoma brucei brucei Strain 427 by a Whole Cell Viability Based HTS Campaign” (PLoS Neglected Tropical Diseases, 2012).
Like-named read-outs stand apart in the source and are kept apart here.

How the values were obtained:
HEK293 cells = assay: HEK293 Alamar Blue viability estimation assay; assay type: cell-based, human; conditions: for IC50: Homo sapiens, HEK293
Experimental: T.b. brucei lister 427 cells were maintained in log phase growth in 25 cm^2 tissue culture flasks (Corning, NY, USA) by sub-culturing at either 24 or 48 hour intervals. Cells were grown in HMI-9 medium, supplemented with 10% fetal calf serum (FCS) and 100 IU/ml penicillin/streptomycin (Invitrogen, Carlsbad, California, USA) with incubation at 5% CO2 at 37°C in humidified conditions. HEK293 cells were maintained in high glucose DMEM with L-glutamine, supplemented with 1× non-essential amino acids (NEAA; Invitrogen, USA) and 1 mM sodium pyruvate. Growth conditions were in 5% CO2 at 37°C, under humidified conditions.
Cells at 80% confluence were harvested and diluted in growth medium (high glucose DMEM supplemented with 10% FCS) to 7.27×10^4 cells/ml. Under sterile conditions, 55 µl of diluted cells per well were added to a black, clear bottomed 384-well lidded plate (BD Biosciences, Bedford, MA, USA) with a Multidrop liquid handler (Thermo Scientific, Barrington, IL, USA). Incubation times, compound additions and plate read were as per the trypanosome viability assay, with the exception that Alamar Blue was diluted in HEK293 growth media before addition, and incubation of Alamar Blue at 37°C, in 5% CO2, was for 4 hours, followed by incubation at room temperature for 20 hours. The activity of compounds against HEK293 cells was used to calculate the SI of mammalian to T.b. brucei cells. The control compound for HEK293 cells was puromycin (Calbiochem, USA).
Compounds identified from primary screening were retested against both T.b. brucei and HEK293 cells in duplicate and at varying concentrations to obtain a dose-response curve. Thus, a 5 µl sample of fresh compound stock solution (5 mM in DMSO) was cherry picked into 384-well plates and diluted 1∶10 in dilution medium (high glucose DMEM without FCS). Serial dilutions of these samples were then prepared in the same media by a Minitrak robotic liquid handler (Perkin Elmer, USA). […] A screening dose of 10.4 µM was included in the dilution series to enable reconfirmation of primary screening T.b. brucei activity.
The DMSO working concentration in the serial dilutions was maintained at 5%, giving a final assay concentration of 0.42% DMSO, except for the 41.7 µM test compound solution, where as previously stated the corresponding DMSO concentration was 0.83% v/v. […] Therefore the 41.7 µM test compound sample with 0.83% v/v DMSO was not used in the T.b. brucei assay and thus the top test compound concentration in this assay was 20.8 µM.
Compound activity in the retest campaign was calculated as percentage inhibition in relation to positive and negative controls, in the same manner as the primary screening campaign. The positive controls, pentamidine (2 µM final concentration) for T.b. brucei and puromycin (8 µM final concentration) for HEK293, were both screened in whole 384-well control plates. Whole 384-well plate controls were included after every batch of 20 compound plates, and were comprised of half a plate of negative control and half a plate of positive control. The negative control was the vehicle, […]. The negative control was also included in column 24 of each compound assay plate to determine signal variation from plate to plate and to calculate compound activity. The exception was the 41.7 µM compound dose used in the HEK293 assay. In these plates column 24 contained 0.83% DMSO as a negative control. A separate 384-well plate containing a 13 point dose-response of the reference compounds puromycin, pentamidine and diminazene, in triplicate, was also included per 20 compound test plate batch to estimate assay sensitivity.
These compounds were retested as in dose for N of three replicates, as described above for both T.b. brucei and HEK293.

mammalian cell lines = conditions: cited from earlier work
[1] = pentamidine 1 µM, diminazene 40 µM

O=C(NCCc1n[nH]c(-c2ccc(F)cc2)n1)c1cccc(F)c1 [Compound 2]
IC50 (HEK293 cells; read-out: Restest IC50 HEK): 41.7 µM

CC(C)(C)C(=O)NCCc1csc(-c2cccc(F)c2)n1 [Compound 1]
IC50 (HEK293 cells; read-out: Restest IC50 HEK): 41.7 µM

CCOc1ccc(OCc2ccc(C(=O)N3CCCC(C)C3)cc2)cc1 (stereo not drawn) [Compound 3]
IC50 (HEK293 cells; read-out: Restest IC50 HEK): 41.7 µM

COc1ccc(C[C@H](N)C(=O)N[C@H]2[C@@H](O)[C@H](n3cnc4c(N(C)C)ncnc43)O[C@@H]2CO)cc1 [Puromycin, puromycin, reference compound]
IC50 (HEK293 cells; reference compound, read-out: IC50 against HEK293, retest screening campaign): 1.12 ± 0.155 µM
IC50 (HEK293 cells; reference compound, read-out: IC50 in HEK293 assay, rescreening of resynthesized compounds): 0.518 ± 0.0281 µM

O=C(Nc1ccc(Cl)c(-c2nc3ncccc3o2)c1)c1ccco1 [Compound 7]
IC50 (HEK293 cells; read-out: Restest IC50 HEK): > 41.7 µM

N=C(N)c1ccc(OCCCCCOc2ccc(C(=N)N)cc2)cc1 [Pentamidine, pentamidine, reference compound]
activity in the HEK293 assay at the doses screened, rescreening (HEK293 cells; [1]): neither pentamidine nor diminazene displayed activity
activity in the HEK293 assay at the doses screened, retest campaign (HEK293 cells; [1]): Neither pentamidine nor diminazene displayed activity
activity reported for some mammalian cell lines (mammalian cell lines): low µM activity
